Holding throughout (type): in vivo, rat
One assay relates to C9. The experiment in a line: Immunofluorescence quantification of C9 in brain. The note with it: ipsilateral cortex and hippocampus, 48 hours, versus NT, P<0.05. The method, then:
TUNEL/C1q staining was performed as follows. Five (5) μm paraffin-embedded coronal brain sections on slides were incubated (1 hour; 60° C.), deparaffinized with xylene, and rehydrated with ethanol (100%, 95%, 70%; RT). Endogenous peroxidase activity was blocked (0.3% H2O2/MeOH; 10 minutes; RT), and heat induced antigen retrieval was performed (when indicated) using 10 mM sodium citrate, pH 6.0. 10% normal serum (from the same species as the host of the secondary antibody) was used to block and to dilute antibodies. Samples were washed twice for 10 min each, in PBST between each step.
After blocking for one hour at room temperature, tissues were incubated with 1:300 goat anti-Iba1 (Abcam), 1:250 goat anti-GFAP (Abcam), 1:500 chicken anti-NeuN (Millipore, Billerica, Mass.), or 1:100 mouse anti-NeuN (Millipore) in host appropriate blocking serum overnight at 4° C. Primary antibodies were probed with 1:500 donkey anti-goat (Abcam), goat anti-chicken (Abcam), or goat anti-mouse (Abcam) AF 488 or 568 in appropriate blocking serum for one hour at room temperature. Tissues were blocked a second time with NGS for one hour at room temperature. […]

A further assay relates to C1q. The experiment in a line: CNS C1q level in whole cell brain lysate, fluorescent immunoassay. The note with it: 8, 12 and 24 hours after initial insult, P<0.05. The method, then:
The local and systemic effects of NT, HT and PIC1 treatment on the complement cascade were measured. CNS C1q levels and systemic C1q and C5a levels were measured using a fluorescent immunoassay.
CNS C1q levels were measured as follows. 150 μg of whole cell brain lysate in 1× PBS was added to the wells of a Costar high binding, black flat bottom 96-well polystyrene microplate (Corning, Steuben County, NY) and incubated overnight at 4° C. The plates were washed 3 times with 1× PBS-0.1% Tween 20 (PBST) and blocked with 10% normal donkey serum (NDS) for one hour. A 1:50 dilution of goat anti-human C1q (Complement Technology, Inc., Tyler, Tex.) in NDS was added into the wells and incubated for one hour at room temperature (RT). After washing, a 1:500 dilution of donkey anti-goat Alexa Fluor (AF) 488 (Life Technologies, Grand Island, N.Y.) in NDS was added, and incubated for one hour at RT. Wells were then washed and blocked with 10% normal goat serum (NGS) for one hour at RT. A 1:250 dilution of mouse anti-GAPDG (Abcam, Cambridge, UK) in NGS was added into the wells and incubated for one hour at RT. Wells were washed and a 1:500 dilution of goat anti-mouse AF 568 (Life Technologies, Grand Island, N.Y.) in NGS was added to incubate for one hour at RT. The wells were washed and the plate read using a Synergy HT (BioTek, Winooski, Vt.).

Assay [1] deals with brain lesion after hypoxia/ischemia. The experiment in a line: T2 MRI for brain tissue viability, lesion volume and edema. The method, then:
Neonatal hypoxia/ischemia was induced in Wistar rat pups (age of 10±1 days, P10) according to Rice et al. (1981) and with modifications. Rat pups were anesthetized with 5% isoflurane (in 70% N2O and 30% O2; flow 300 ml/min). During the operation the concentration of anesthetic was reduced to 1.0-1.5% to maintain adequate level of anesthesia. The rectal temperature was maintained at 37.0±1.5° C. with a homeothermic blanket system (Harvard Apparatus, UK). Just before first incision, pups received buprenorphine 0.03 mg/kg i.p. After midline skin incision, the right common carotid artery (CCA) was exposed and permanently ligated distal from the carotid bifurcation. Thereafter the wound was closed, disinfected, and the animals were allowed to recover from anesthesia for 1 hour before subjecting them to hypoxic conditions. Pups were carefully monitored for possible post-surgical complications. An additional dose of buprenorphine 0.03 mg/kg was administered s.c. twice a day during the first 48 hours post-surgery.
Therma-treatment (6 hours) was started 1 hour post-hypoxia, to maintain normothermia (36+/−1° C. rat internal temperature) or hypothermia (31° C.+/−1 rat internal temperature), as follows. After CCA ligation, suturing and recovery for 1 h, pups were placed into chamber submerged to heated (+37° C.) water bath. Chamber was ventilated with heated (gas lines submerged to +37° C. water) mixture of 8% O2/92% N2 while pups were subjected to hypoxia. During the hypoxia period, chamber inner temperature was monitored. Pups were kept under hypoxic conditions for 60 minutes, except in group 5. In all pups the rectal temperature was monitored to ensure normothermic body temperature during hypoxia exposure. Rectal temperature after the H/I period was measured and recorded at the end of the exposure.
No other preparation was needed. The thawed tubes were kept on ice until dosing. […]
Brain tissue viability was performed as follows. Lesion T2 and Control T2 values (in milliseconds) were measured at 24 hours and 21 days after H/I, and the data are shown as average. […]

“Also recorded” adds a separate entry of the source. No end group written: not given here.

As for “IALILEPICCQERAA-dPEG24 (cysteine pairing not given here) [PIC1]”, the C9 expression result in the assay with C9 was “decreased expression”. In addition, the “whole brain C1q levels, NT animals relative to PIC1-treated animals” value in the assay with C1q is “significantly higher”. For the same substance, the “lesion volume in MRI” value in assay [1] (24 hours, pooled genders, H/I+PIC1+hypo versus H/I+hypo, p<0.05) was “reduction; also recorded: significant difference”. In addition, in assay [1] (21 days, pooled genders, H/I+PIC1+normo versus H/I+hypo, p<0.01), the “edema (%) in MRI” value is “reduction”. Besides, in assay [1] (contralateral cortex, between study groups, pooled or separated genders), the “control T2 value” is “no changes; also recorded: No statistical significances”.

The record behind these values is patent US20220249596A1, “PIC1 PEPTIDE COMPOSITIONS AND METHODS OF USE THEREOF FOR TREATMENT OF HYPOXIC ISCHEMIC ENCEPHALOPATHY” (REALTA HOLDINGS, LLC, priority 2019, published 2022).
